Holding throughout (format): biochemical
One test deals with T1, TYK2 (Homo sapiens, UniProt P29597).
T1 construct: JAK1 (aa 850-1154) and TYK2 (aa 871-1187) are expressed with an N-terminally fused GST-tag; GST (N); purchased Carna Biosciences, Inc; host or cells: baculovirus expression system
T1 sequence (P29597 871-1187): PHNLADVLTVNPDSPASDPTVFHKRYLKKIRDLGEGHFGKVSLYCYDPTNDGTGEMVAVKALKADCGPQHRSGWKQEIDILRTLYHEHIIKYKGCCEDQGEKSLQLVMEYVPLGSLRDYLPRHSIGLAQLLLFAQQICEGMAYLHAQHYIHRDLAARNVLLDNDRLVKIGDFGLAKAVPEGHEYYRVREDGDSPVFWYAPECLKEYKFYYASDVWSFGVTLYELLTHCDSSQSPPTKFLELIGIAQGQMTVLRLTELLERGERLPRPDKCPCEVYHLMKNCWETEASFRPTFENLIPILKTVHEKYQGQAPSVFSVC
The experiment in a line: JAK kinase assay (HTRF, phosphorylation of synthetic peptide), TYK2. To be noted: catalytic domain, ATP at Km (13 μM); read-out: TYK2 kinase inhibitory activity (EC50). The essentials:
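1 µM biotinylated TK peptide at Km ATP in pH 7.0 Hepes, 20-30 min RT. EDTA stop; overnight streptavidin-XL665/cryptate HTRF read.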
In general terms: TR-FRET usually uses a lanthanide donor and a delayed reading to cut background.

The target of a further test is T2, JAK2 (Homo sapiens, UniProt O60674).
T2 construct: All four purified enzymes contain only the catalytic domain; His (N); purchased Carna Biosciences, Inc; host or cells: baculovirus expression system
T2 sequence (O60674 849-1124 limits assumed): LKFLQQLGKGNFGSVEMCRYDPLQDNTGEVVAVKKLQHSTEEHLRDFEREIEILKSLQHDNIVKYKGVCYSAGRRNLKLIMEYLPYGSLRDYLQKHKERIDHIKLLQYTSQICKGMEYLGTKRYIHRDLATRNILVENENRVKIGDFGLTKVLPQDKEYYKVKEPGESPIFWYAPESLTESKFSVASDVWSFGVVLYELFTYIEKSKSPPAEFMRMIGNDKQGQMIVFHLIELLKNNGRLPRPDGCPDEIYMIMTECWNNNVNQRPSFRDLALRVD
The experiment in a line: JAK kinase assay (HTRF, phosphorylation of synthetic peptide), JAK2. Particulars: catalytic domain, ATP at Km (4 μM); read-out: JAK2 kinase inhibitory activity (EC50). The essentials: (§1)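 Catalytic-domain human JAK1 (GST-tagged, aa 850-1154) or His-tagged JAK2, baculovirus-expressed, phosphorylated 1 µM biotinylated TK peptide at Km ATP (JAK1 7 µM, 10 mM MgCl2, 50 nM SEB; JAK2 4 µM, 5 mM MgCl2) in pH 7.0 Hepes, 20-30 min RT. EDTA stop; overnight streptavidin-XL665/cryptate HTRF read.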

The target of another test is T3, JAK3 (Homo sapiens, UniProt P52333).
T3 construct: All four purified enzymes contain only the catalytic domain; His (N); purchased Carna Biosciences, Inc; host or cells: baculovirus expression system
T3 sequence (P52333 822-1111 limits assumed): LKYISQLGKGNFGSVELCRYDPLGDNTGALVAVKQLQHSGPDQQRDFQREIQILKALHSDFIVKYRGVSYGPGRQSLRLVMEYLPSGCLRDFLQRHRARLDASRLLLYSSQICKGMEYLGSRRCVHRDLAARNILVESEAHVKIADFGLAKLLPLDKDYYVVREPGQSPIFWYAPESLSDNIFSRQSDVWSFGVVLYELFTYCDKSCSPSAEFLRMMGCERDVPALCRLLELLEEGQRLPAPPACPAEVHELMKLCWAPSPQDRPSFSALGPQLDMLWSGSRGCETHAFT
The experiment in a line: JAK kinase assay (HTRF, phosphorylation of synthetic peptide), JAK3. Particulars: catalytic domain, ATP at Km (2 μM); read-out: JAK3 kinase inhibitory activity (EC50).

Another test deals with T4, JAK1 (Homo sapiens, UniProt P23458).
T4 construct: JAK1 (aa 850-1154) and TYK2 (aa 871-1187) are expressed with an N-terminally fused GST-tag; GST (N); purchased Carna Biosciences, Inc; host or cells: baculovirus expression system
T4 sequence (P23458 850-1154): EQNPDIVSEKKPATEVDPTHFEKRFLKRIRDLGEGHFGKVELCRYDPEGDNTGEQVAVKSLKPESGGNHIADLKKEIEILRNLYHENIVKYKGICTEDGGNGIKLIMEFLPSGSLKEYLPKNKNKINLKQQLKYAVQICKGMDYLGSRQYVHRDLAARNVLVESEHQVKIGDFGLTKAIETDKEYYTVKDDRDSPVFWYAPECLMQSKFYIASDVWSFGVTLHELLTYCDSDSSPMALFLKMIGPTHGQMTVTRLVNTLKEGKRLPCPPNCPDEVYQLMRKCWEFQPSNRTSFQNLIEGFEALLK
The experiment in a line: JAK kinase assay (HTRF, phosphorylation of synthetic peptide), JAK1. To be noted: catalytic domain, ATP at Km (7 μM); read-out: JAK1 kinase inhibitory activity (EC50). The essentials:
as §1

The values below come from patent publication US9233964B2, “Sulfamide piperazine derivatives as protein tyrosine kinase inhibitors and pharmaceutical use therof” (LEO PHARMA A/S, priority 2011, dated 2016).

In the case of `CN(C[C@@H]1CC(F)(F)CN1S(C)(=O)=O)S(=O)(=O)N1CCN(c2ncnc3[nH]ccc23)CC12CC2` [Example 162, N-[[(2S)-4,4-difluoro-1-methylsulfonyl-pyrrolidin-2-yl]methyl]-N-methyl-5-(7H-pyrrolo[2,3-d]pyrimidin-4-yl)-5,8-diazaspiro[2.5]octane-8-sulfonamide], the concentration for a half-maximal effect (EC50) at TYK2, on JAK2, at JAK3 and at JAK1 was under 100 nM in each case.

Take `CN(C[C@@H]1CC(F)(F)CN1S(=O)(=O)CCCC#N)S(=O)(=O)N1CCN(c2ncnc3[nH]ccc23)CC12CC2` [Example 163, N-[[(2S)-1-(3-cyanopropylsulfonyl)-4,4-difluoro-pyrrolidin-2-yl]methyl]-N-methyl-5-(7H-pyrrolo[2,3-d]pyrimidin-4-yl)-5,8-diazaspiro[2.5]octane-8-sulfonamide]: the EC50 at TYK2, on JAK2, at JAK3 and on JAK1 was under 100 nM throughout.

As for `CN(C[C@@H]1CC(F)(F)CN1S(=O)(=O)CC1CC1)S(=O)(=O)N1CCN(c2ncnc3[nH]ccc23)CC12CC2` [Example 164, N-[[(2S)-1-(cyclopropylmethylsulfonyl)-4,4-difluoro-pyrrolidin-2-yl]methyl]-N-methyl-5-(7H-pyrrolo[2,3-d]pyrimidin-4-yl)-5,8-diazaspiro[2.5]octane-8-sulfonamide], the EC50 at TYK2, at JAK2, on JAK3 and at JAK1 was under 100 nM throughout.

`CN(CC1CCS(=O)(=O)C1)S(=O)(=O)N1CCN(c2ncnc3[nH]ccc23)CC12CC2` (stereo not shown) [Example 165, N-[(1,1-dioxothiolan-3-yl)methyl]-N-methyl-5-(7H-pyrrolo[2,3-d]pyrimidin-4-yl)-5,8-diazaspiro[2.5]octane-8-sulfonamide]: the EC50 (commonly the concentration that produces a half-maximal response) is 100 to 500 nM on TYK2, under 100 nM at JAK2, under 100 nM at JAK3 and under 100 nM at JAK1.

For `N#CCN(CC1CCS(=O)(=O)C1)S(=O)(=O)N1CCN(c2ncnc3[nH]ccc23)CC12CC2` (stereo not shown) [Example 166, N-(cyanomethyl)-N-[(1,1-dioxothiolan-3-yl)methyl]-5-(7H-pyrrolo[2,3-d]pyrimidin-4-yl)-5,8-diazaspiro[2.5]octane-8-sulfonamide], the EC50 on TYK2, at JAK2, on JAK3 and at JAK1 was under 100 nM throughout.

Turning to `O=S1(=O)CCC(CN(CCO)S(=O)(=O)N2CCN(c3ncnc4[nH]ccc34)CC23CC3)C1` (stereo not shown) [Example 167, N-[(1,1-dioxothiolan-3-yl)methyl]-N-(2-hydroxyethyl)-5-(7H-pyrrolo[2,3-d]pyrimidin-4-yl)-5,8-diazaspiro[2.5]octane-8-sulfonamide], the EC50 at TYK2 was 100 to 500 nM; on JAK2 it was under 100 nM; at JAK3, under 100 nM; at JAK1, under 100 nM.

As for `CN(CC1CCS(=O)(=O)CC1)S(=O)(=O)N1CCN(c2ncnc3[nH]ccc23)CC12CC2` [Example 168, N-[(1,1-dioxothian-4-yl)methyl]-N-methyl-5-(7H-pyrrolo[2,3-d]pyrimidin-4-yl)-5,8-diazaspiro[2.5]octane-8-sulfonamide], the EC50 on TYK2, at JAK2, at JAK3 and at JAK1 was under 100 nM throughout.

On to `N#CCN(CC1CCS(=O)(=O)CC1)S(=O)(=O)N1CCN(c2ncnc3[nH]ccc23)CC12CC2` [Example 169, N-(cyanomethyl)-N-[(1,1-dioxothian-4-yl)methyl]-5-(7H-pyrrolo[2,3-d]pyrimidin-4-yl)-5,8-diazaspiro[2.5]octane-8-sulfonamide], for which the EC50 at TYK2, on JAK2, at JAK3 and on JAK1 was under 100 nM throughout.

Regarding `O=S1(=O)CCC(CN(CCO)S(=O)(=O)N2CCN(c3ncnc4[nH]ccc34)CC23CC3)CC1` [Example 170, N-[(1,1-dioxothian-4-yl)methyl]-N-(2-hydroxyethyl)-5-(7H-pyrrolo[2,3-d]pyrimidin-4-yl)-5,8-diazaspiro[2.5]octane-8-sulfonamide], the EC50 on TYK2, at JAK2, at JAK3 and on JAK1 was under 100 nM in each case.

Regarding `N#CCCN(CC#N)S(=O)(=O)N1CCN(c2ncnc3[nH]ccc23)CC12CC2` [Example 171, N-(2-cyanoethyl)-N-(cyanomethyl)-5-(7H-pyrrolo[2,3-d]pyrimidin-4-yl)-5,8-diazaspiro[2.5]octane-8-sulfonamide], the EC50 at TYK2, on JAK2, on JAK3 and on JAK1 was under 100 nM throughout.

In the case of `CC(=O)N(CC1CCS(=O)(=O)C1)S(=O)(=O)N1CCN(c2ncnc3[nH]ccc23)CC12CC2` (stereo not shown) [Example 172, N-[(1,1-dioxothiolan-3-yl)methyl]-N-[[5-(7H-pyrrolo[2,3-d]pyrimidin-4-yl)-5,8-diazaspiro[2.5]octan-8-yl]sulfonyl]acetamide], the EC50 is 100 to 500 nM at TYK2, under 100 nM on JAK2, under 100 nM on JAK3 and under 100 nM on JAK1.

For `CC(=O)N(CC1CCS(=O)(=O)CC1)S(=O)(=O)N1CCN(c2ncnc3[nH]ccc23)CC12CC2` [Example 173, N-[(1,1-dioxothian-4-yl)methyl]-N-[[5-(7H-pyrrolo[2,3-d]pyrimidin-4-yl)-5,8-diazaspiro[2.5]octan-8-yl]sulfonyl]acetamide], the EC50 on TYK2 was 100 to 500 nM; on JAK2, under 100 nM; on JAK3, under 100 nM; on JAK1, under 100 nM.

Turning to `CN(OCc1ccccc1)S(=O)(=O)N1CCN(c2ncnc3[nH]ccc23)CC12CC2` [Example 174, N-benzyloxy-N-methyl-5-(7H-pyrrolo[2,3-d]pyrimidin-4-yl)-5,8-diazaspiro[2.5]octane-8-sulfonamide], the EC50 at TYK2 was 100 to 500 nM; at JAK2 it was under 100 nM; at JAK3, 100 to 500 nM; at JAK1 it was under 100 nM.

Take `O=S(=O)(NC[C@@H]1CCCN1Cc1ccccc1)N1CCN(c2ncnc3[nH]ccc23)CC12CC2` [Example 175, N-[[(2S)-1-benzylpyrrolidin-2-yl]methyl]-5-(7H-pyrrolo[2,3-d]pyrimidin-4-yl)-5,8-diazaspiro[2.5]octane-8-sulfonamide]: the EC50 at TYK2 was 100 to 500 nM; on JAK2 it was under 100 nM; on JAK3, 100 to 500 nM; at JAK1 it was under 100 nM.

For the molecule `O=CNS(=O)(=O)N1CCN(c2ncnc3[nH]ccc23)CC12CC2` [Example 176, N-[[5-(7H-pyrrolo[2,3-d]pyrimidin-4-yl)-5,8-diazaspiro[2.5]octan-8-yl]sulfonyl]formamide], the EC50 on TYK2 is over 500 nM; at JAK2 it was under 100 nM; at JAK3 it was 100 to 500 nM; at JAK1 it was under 100 nM.

With `CN(CC12C3C4C1C1C2C3C41C#N)S(=O)(=O)N1CCN(c2ncnc3[nH]ccc23)CC12CC2` (stereo not shown) [Example 177, N-[(4-cyanocuban-1-yl)methyl]-N-methyl-5-(7H-pyrrolo[2,3-d]pyrimidin-4-yl)-5,8-diazaspiro[2.5]octane-8-sulfonamide], the EC50 at TYK2, at JAK2, at JAK3 and at JAK1 was under 100 nM in each case.

Regarding `CN(C1CN(C(=O)CO)C1)S(=O)(=O)N1CCN(c2ncnc3[nH]ccc23)CC12CC2` [Example 178, N-[1-(2-hydroxyacetyl)azetidin-3-yl]-N-methyl-5-(7H-pyrrolo[2,3-d]pyrimidin-4-yl)-5,8-diazaspiro[2.5]octane-8-sulfonamide], the EC50 was 100 to 500 nM at TYK2, under 100 nM on JAK2, under 100 nM at JAK3 and under 100 nM at JAK1.

With `CN(C1CN(C(=O)CCO)C1)S(=O)(=O)N1CCN(c2ncnc3[nH]ccc23)CC12CC2` [Example 179, N-[1-(3-hydroxypropanoyl)azetidin-3-yl]-N-methyl-5-(7H-pyrrolo[2,3-d]pyrimidin-4-yl)-5,8-diazaspiro[2.5]octane-8-sulfonamide], the EC50 at TYK2 is 100 to 500 nM; on JAK2, under 100 nM; at JAK3, 100 to 500 nM; on JAK1 it was under 100 nM.

On to `CN(C1CN(S(C)(=O)=O)C1)S(=O)(=O)N1CCN(c2ncnc3[nH]ccc23)CC12CC2` [Example 180, N-methyl-N-(1-methylsulfonylazetidin-3-yl)-5-(7H-pyrrolo[2,3-d]pyrimidin-4-yl)-5,8-diazaspiro[2.5]octane-8-sulfonamide], for which the EC50 at TYK2, on JAK2, on JAK3 and on JAK1 was under 100 nM throughout.
